Results on one compound are retold here after ChEMBL document CHEMBL1150147, “Bioactive natural products from a sclerotium-colonizing isolate of Humicola fuscoatra” (2002).

For the test, the system named is Aspergillus flavus. Description: Antifungal activity against Aspergillus flavus at 200 ug/disk by disk assay. In kind it is functional. To be noted: read-out: IZ.

Regarding `CC(=O)O[C@@H]1C[C@]2(C)C3=C(CC[C@H]2C(C)(C)[C@@H]1O[C@@H]1O[C@H](CO)[C@@H](O)[C@H](O)[C@H]1O)[C@@]1(C)CC[C@](C)([C@H](C)C(C)C)[C@@H](C(=O)O)[C@]1(C)CC3` [FUSCOATROSIDE], the zone of inhibition at 200 µg/disc turned out to be 18 mm.
